Laboratory results reported in ChEMBL document CHEMBL1153107, “A highly atom economic, chemo-, regio- and stereoselective synthesis and evaluation of spiro-pyrrolothiazoles as antitubercular agents” (2010).
Converted amounts (≈) assume the structure as drawn.

system: Mycobacterium tuberculosis; experiment: Antitubercular activity against Mycobacterium tuberculosis; format: functional

SMILES	MIC [µM]
CN1C/C(=C\c2ccccc2Cl)C(=O)[C@]2(C1)[C@H](c1ccccc1Cl)[C@@H]1CSCN1[C@@]21C(=O)Nc2ccc([N+](=O)[O-])cc21	2.6 (≈ 1.62 µg/mL)
CN1C/C(=C\c2ccc(F)cc2)C(=O)[C@]2(C1)[C@H](c1ccc(F)cc1)[C@@H]1CSCN1[C@@]21C(=O)Nc2ccc([N+](=O)[O-])cc21	1.4 (≈ 0.824 µg/mL)
COc1ccccc1/C=C1\CN(C)C[C@@]2(C1=O)[C@H](c1ccccc1OC)[C@@H]1CSCN1[C@@]21C(=O)Nc2ccc([N+](=O)[O-])cc21	5.1 (≈ 3.12 µg/mL)
Cc1ccc(/C=C2\CN(C)C[C@@]3(C2=O)[C@H](c2ccc(C)cc2)[C@@H]2CSCN2[C@@]32C(=O)Nc3ccccc32)cc1	23.3 (≈ 12.5 µg/mL)
CN1C/C(=C\c2ccccc2-c2cccs2)C(=O)[C@]2(C1)[C@H](c1ccccc1-c1cccs1)[C@@H]1CSCN1[C@@]21C(=O)Nc2ccc([N+](=O)[O-])cc21	5.5 (≈ 3.94 µg/mL)
NC(=O)c1cnccn1 [PYRAZINAMIDE]	50.8 (≈ 6.25 µg/mL)
Cc1ccccc1/C=C1\CN(C)C[C@@]2(C1=O)[C@H](c1ccccc1C)[C@@H]1CSCN1[C@@]21C(=O)Nc2ccccc21	23.3 (≈ 12.5 µg/mL)
CN1C/C(=C\c2ccc(Br)cc2)C(=O)[C@]2(C1)[C@H](c1ccc(Br)cc1)[C@@H]1CSCN1[C@@]21C(=O)Nc2ccccc21	4.7 (≈ 3.13 µg/mL)
Cc1ccc(/C=C2\CN(C)C[C@@]3(C2=O)[C@H](c2ccc(C)cc2)[C@@H]2CSCN2[C@@]32C(=O)Nc3ccc(Cl)cc32)cc1	11 (≈ 6.27 µg/mL)
NNC(=O)c1ccncc1 [ISONIAZID]	0.4 (≈ 0.0549 µg/mL)
COc1ccc(/C=C2\CN(C)C[C@@]3(C2=O)[C@H](c2ccc(OC)cc2OC)[C@@H]2CSCN2[C@@]32C(=O)Nc3ccc(Cl)cc32)c(OC)c1	18.9 (≈ 12.5 µg/mL)
CC[C@@H](CO)NCCN[C@@H](CC)CO [ETHAMBUTOL]	7.6 (≈ 1.55 µg/mL)
COc1ccccc1/C=C1\CN(C)C[C@@]2(C1=O)[C@H](c1ccccc1OC)[C@@H]1CSCN1[C@@]21C(=O)Nc2ccc(Cl)cc21	20.8 (≈ 12.5 µg/mL)
COc1ccc(/C=C2\CN(C)C[C@@]3(C2=O)[C@H](c2ccc(OC)cc2OC)[C@@H]2CSCN2[C@@]32C(=O)Nc3ccccc32)c(OC)c1	19.9 (≈ 12.5 µg/mL)
COc1ccc(/C=C2\CN(C)C[C@@]3(C2=O)[C@H](c2ccc(OC)cc2OC)[C@@H]2CSCN2[C@@]32C(=O)Nc3ccc([N+](=O)[O-])cc32)c(OC)c1	9.4 (≈ 6.32 µg/mL)
CN1C/C(=C\c2ccccc2)C(=O)[C@]2(C1)[C@H](c1ccccc1)[C@@H]1CSCN1[C@@]21C(=O)Nc2ccccc21	49.2 (≈ 25 µg/mL)
CN1C/C(=C\c2ccc(Br)cc2)C(=O)[C@]2(C1)[C@H](c1ccc(Br)cc1)[C@@H]1CSCN1[C@@]21C(=O)Nc2ccc([N+](=O)[O-])cc21	1.1 (≈ 0.781 µg/mL)
CN1C/C(=C\c2ccccc2Cl)C(=O)[C@]2(C1)[C@H](c1ccccc1Cl)[C@@H]1CSCN1[C@@]21C(=O)Nc2ccccc21	10.9 (≈ 6.28 µg/mL)
Cc1ccccc1/C=C1\CN(C)C[C@@]2(C1=O)[C@H](c1ccccc1C)[C@@H]1CSCN1[C@@]21C(=O)Nc2ccc([N+](=O)[O-])cc21	5.3 (≈ 3.08 µg/mL)
CN1C/C(=C\c2ccccc2)C(=O)[C@]2(C1)[C@H](c1ccccc1)[C@@H]1CSCN1[C@@]21C(=O)Nc2ccc([N+](=O)[O-])cc21	5.6 (≈ 3.09 µg/mL)
CN1C/C(=C\c2ccc(Cl)cc2Cl)C(=O)[C@]2(C1)[C@H](c1ccc(Cl)cc1Cl)[C@@H]1CSCN1[C@@]21C(=O)Nc2ccc([N+](=O)[O-])cc21	0.6 (≈ 0.414 µg/mL)

SMILES	MIC [µM]
CC(C)c1ccc(/C=C2\CN(C)C[C@@]3(C2=O)[C@H](c2ccc(C(C)C)cc2)[C@@H]2CSCN2[C@@]32C(=O)Nc3ccc(Cl)cc32)cc1	10.1 (≈ 6.33 µg/mL)
CN1C/C(=C\c2ccc(Cl)cc2)C(=O)[C@]2(C1)[C@H](c1ccc(Cl)cc1)[C@@H]1CSCN1[C@@]21C(=O)Nc2ccc([N+](=O)[O-])cc21	1.3 (≈ 0.808 µg/mL)
Cc1ccccc1/C=C1\CN(C)C[C@@]2(C1=O)[C@H](c1ccccc1C)[C@@H]1CSCN1[C@@]21C(=O)Nc2ccc(Cl)cc21	11 (≈ 6.27 µg/mL)
CN1C/C(=C\c2ccccc2-c2cccs2)C(=O)[C@]2(C1)[C@H](c1ccccc1-c1cccs1)[C@@H]1CSCN1[C@@]21C(=O)Nc2ccccc21	12.1 (≈ 8.13 µg/mL)
CN1C/C(=C\c2ccccc2Cl)C(=O)[C@]2(C1)[C@H](c1ccccc1Cl)[C@@H]1CSCN1[C@@]21C(=O)Nc2ccc(Cl)cc21	5.1 (≈ 3.12 µg/mL)
CO[C@H]1/C=C/O[C@@]2(C)Oc3c(C)c(O)c4c(O)c(c(/C=N/N5CCN(C)CC5)c(O)c4c3C2=O)NC(=O)/C(C)=C\C=C\[C@H](C)[C@H](O)[C@@H](C)[C@@H](O)[C@@H](C)[C@H](OC(C)=O)[C@@H]1C [RIFAMPIN]	0.1 (≈ 0.0823 µg/mL)
CN1C/C(=C\c2ccc(F)cc2)C(=O)[C@]2(C1)[C@H](c1ccc(F)cc1)[C@@H]1CSCN1[C@@]21C(=O)Nc2ccccc21	5.7 (≈ 3.1 µg/mL)
COc1ccc(/C=C2\CN(C)C[C@@]3(C2=O)[C@H](c2ccc(OC)cc2)[C@@H]2CSCN2[C@@]32C(=O)Nc3ccc(Cl)cc32)cc1	20.8 (≈ 12.5 µg/mL)
Cc1ccc(/C=C2\CN(C)C[C@@]3(C2=O)[C@H](c2ccc(C)cc2)[C@@H]2CSCN2[C@@]32C(=O)Nc3ccc([N+](=O)[O-])cc32)cc1	5.3 (≈ 3.08 µg/mL)
CN1C/C(=C\c2ccc(Cl)cc2Cl)C(=O)[C@]2(C1)[C@H](c1ccc(Cl)cc1Cl)[C@@H]1CSCN1[C@@]21C(=O)Nc2ccccc21	4.7 (≈ 3.03 µg/mL)
CC(C)c1ccc(/C=C2\CN(C)C[C@@]3(C2=O)[C@H](c2ccc(C(C)C)cc2)[C@@H]2CSCN2[C@@]32C(=O)Nc3ccccc32)cc1	10.6 (≈ 6.27 µg/mL)
CN1C/C(=C\c2ccccc2)C(=O)[C@]2(C1)[C@H](c1ccccc1)[C@@H]1CSCN1[C@@]21C(=O)Nc2ccc(Cl)cc21	23.1 (≈ 12.5 µg/mL)
CN1C/C(=C\c2ccc(F)cc2)C(=O)[C@]2(C1)[C@H](c1ccc(F)cc1)[C@@H]1CSCN1[C@@]21C(=O)Nc2ccc(Cl)cc21	2.8 (≈ 1.62 µg/mL)
CN1C/C(=C\c2ccc(Cl)cc2)C(=O)[C@]2(C1)[C@H](c1ccc(Cl)cc1)[C@@H]1CSCN1[C@@]21C(=O)Nc2ccc(Cl)cc21	5.1 (≈ 3.12 µg/mL)
COc1ccc(/C=C2\CN(C)C[C@@]3(C2=O)[C@H](c2ccc(OC)cc2)[C@@H]2CSCN2[C@@]32C(=O)Nc3ccc([N+](=O)[O-])cc32)cc1	10.3 (≈ 6.31 µg/mL)
CN1C/C(=C\c2ccc(Cl)cc2)C(=O)[C@]2(C1)[C@H](c1ccc(Cl)cc1)[C@@H]1CSCN1[C@@]21C(=O)Nc2ccccc21	5.4 (≈ 3.11 µg/mL)
CN1C/C(=C\c2ccccc2-c2cccs2)C(=O)[C@]2(C1)[C@H](c1ccccc1-c1cccs1)[C@@H]1CSCN1[C@@]21C(=O)Nc2ccc(Cl)cc21	11.4 (≈ 8.05 µg/mL)
CN1C/C(=C\c2ccc(Br)cc2)C(=O)[C@]2(C1)[C@H](c1ccc(Br)cc1)[C@@H]1CSCN1[C@@]21C(=O)Nc2ccc(Cl)cc21	4.4 (≈ 3.08 µg/mL)
COc1ccccc1/C=C1\CN(C)C[C@@]2(C1=O)[C@H](c1ccccc1OC)[C@@H]1CSCN1[C@@]21C(=O)Nc2ccccc21	22 (≈ 12.5 µg/mL)
COc1ccc(/C=C2\CN(C)C[C@@]3(C2=O)[C@H](c2ccc(OC)cc2)[C@@H]2CSCN2[C@@]32C(=O)Nc3ccccc32)cc1	22 (≈ 12.5 µg/mL)
CN1C/C(=C\c2ccc(Cl)cc2Cl)C(=O)[C@]2(C1)[C@H](c1ccc(Cl)cc1Cl)[C@@H]1CSCN1[C@@]21C(=O)Nc2ccc(Cl)cc21	1.2 (≈ 0.816 µg/mL)
